Molecular target: T1, PTP1B (recombinant human GST-PTP1B) (Homo sapiens, UniProt P18031)
T1 sequence (P18031 1-435): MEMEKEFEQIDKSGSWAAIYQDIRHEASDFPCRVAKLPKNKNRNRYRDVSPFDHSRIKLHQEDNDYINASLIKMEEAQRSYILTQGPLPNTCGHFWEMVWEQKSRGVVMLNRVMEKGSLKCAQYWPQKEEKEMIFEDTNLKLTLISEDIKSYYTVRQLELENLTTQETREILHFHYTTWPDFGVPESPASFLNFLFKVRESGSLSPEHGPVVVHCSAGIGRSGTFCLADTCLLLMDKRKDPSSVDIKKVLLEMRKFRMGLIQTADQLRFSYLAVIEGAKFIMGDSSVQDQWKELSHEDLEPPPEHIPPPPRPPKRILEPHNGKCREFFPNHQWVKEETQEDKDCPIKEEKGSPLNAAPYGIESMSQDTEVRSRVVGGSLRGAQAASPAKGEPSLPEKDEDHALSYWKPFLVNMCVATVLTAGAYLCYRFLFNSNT
Test: pNPP hydrolysis, absorbance […] nm
Assay type: biochemical

IC50 [µM] | SMILES
4.9 | CN(C)c1ccc(C(=O)CCc2ccc(C(=O)Nc3ccc(C(=O)Nc4ccccc4)cc3)cc2)cc1 [compound 4, 4-(3-(4-(Dimethylamino)phenyl)-3-oxopropyl)-N-(4-(phenylcarbamoyl)phenyl)benzamide]
7.26 | COc1ccc(C(=O)CCc2ccc(C(=O)Nc3ccc(C(=O)Nc4ccc(N5CCOCC5)cc4)cc3)cc2)cc1 [compound 8, 4-(3-(4-Methoxyphenyl)-3-oxopropyl)-N-(4-((4-morpholinophenyl)carbamoyl)phenyl)benzamide]
8.81 | O=C(/C=C/c1ccc(C(=O)Nc2ccc(C(=O)Nc3ccccc3)cc2)cc1)c1ccc(F)cc1 [compound 9, (E)-4-(3-(4-Fluorophenyl)-3-oxoprop-1-en-1-yl)-N-(4-(phenylcarbamoyl)phenyl)benzamide]
5.23 | Cc1ccc(C(=O)/C=C/c2ccc(C(=O)Nc3ccc(C(=O)Nc4ccccc4)cc3)cc2)cc1 [compound 10, (E)-4-(3-Oxo-3-(p-tolyl)prop-1-en-1-yl)-N-(4-(phenylcarbamoyl)phenyl)benzamide]
7.74 | COc1ccc(/C=C/C(=O)c2ccc(C(=O)Nc3ccc(C(=O)Nc4ccccc4)cc3)cc2)cc1 [compound 15, (E)-4-(3-(4-Methoxyphenyl)acryloyl)-N-(4-(phenylcarbamoyl)phenyl)benzamide]
8.16 | COc1ccc(C(=O)NCc2ccc(C(=O)Nc3ccc(C(=O)Nc4ccccc4)cc3)cc2)cc1 [compound 18, 4-Methoxy-N-(4-((4-(phenylcarbamoyl)phenyl)carbamoyl)benzyl)benzamide]
6.85 | COc1ccc(C(=O)NCc2ccc(C(=O)Nc3ccc(C(=O)Nc4ccc(N5CCOCC5)cc4)cc3)cc2)cc1 [compound 20, 4-Methoxy-N-(4-((4-((4-morpholinophenyl)carbamoyl)phenyl)carbamoyl)benzyl)benzamide]
4.76 | COc1ccc(C(=O)NCc2ccc(C(=O)Nc3ccc(C(=O)Nc4ccccc4OC)cc3)cc2)cc1 [compound 23, 4-Methoxy-N-(4-((4-((2-methoxyphenyl)carbamoyl)phenyl)carbamoyl)benzyl)benzamide]
4.19 | COc1ccc(CC(=O)Nc2ccc(NC(=O)c3ccc(CCC(=O)c4ccc(OC)cc4)cc3)cc2)cc1 [compound 27, 4-(3-(4-Methoxyphenyl)-3-oxopropyl)-N-(4-(2-(4-methoxyphenyl)acetamido)phenyl)benzamide]
5.91 | COc1ccc(CC(=O)Nc2ccc(NC(=O)c3ccc(/C=C/C(=O)c4ccc(OC)cc4)cc3)cc2)cc1 [compound 28, (E)-4-(3-(4-Methoxyphenyl)-3-oxoprop-1-en-1-yl)-N-(4-(2-(4-methoxyphenyl)acetamido)phenyl)benzamide]
4.7 | COc1ccc(/C=C/C(=O)c2ccc(C(=O)Nc3ccc(NC(=O)Cc4ccc(OC)cc4)cc3)cc2)cc1 [compound 29, (E)-N-(4-(2-(4-Methoxyphenyl)acetamido)phenyl)-4-(3-(4-methoxyphenyl)acryloyl)benzamide]
6.22 | COc1ccc(C(=O)NCc2ccc(C(=O)Nc3ccc(NC(=O)c4ccccc4)cc3)cc2)cc1 [compound 31, N-(4-Benzamidophenyl)-4-((4-methoxybenzamido)methyl)benzamide]
24.3 | COc1ccc(C(=O)CCc2ccc(C(=O)Nc3cccc(C(=O)Nc4cc(OC)cc(OC)c4)c3)cc2)cc1 [compound 33, N-(3,5-Dimethoxyphenyl)-3-(4-(3-(4-methoxyphenyl)-3-oxopropyl)benzamido)benzamide]

— PMC6251817 (Acta Pharmaceutica Sinica. B, 2018)
